Where two headings read alike, the source gives them in different places.
What was measured:
[1] = biological target: human full-length recombinant HPK1 (Homo sapiens (Human), UniProt Q92918); experiment: HPK1 biochemical enzyme assay, microfluidic mobility shift assay (MSA); details: read-out: HPK1 Enzyme Assay_Ki
Procedure: HPK1 enzyme inhibition was measured using a microfluidic mobility shift assay (MSA). […] The reactions were conducted for 60 min at 37° C., stopped by the addition of 50 μL of 0.015 M EDTA, pH 8, and the extent of reactions (˜15-20% conversion with no inhibitor) was determined after electrophoretic separation of the fluorescently labeled peptide substrate and phosphorylated product on an LabChip EZ Reader II (PerkinElmer, Inc., Waltham, Mass.). […]

[2] = tested on: phospho-SLP-76 (Ser376) in Jurkat cells; experiment: Phospho-SLP-76 (Ser376) Homogeneous Time Resolved Fluorescence (HTRF) assay in Jurkat cells; type: cell-based; details: Homo sapiens, read-out: SLP76 Assay_IC50
Procedure: Jurkat cells were seeded at 90,000 cells/well in 90 uL of RPMI1640 growth medium containing 10% FBS and incubated at 37° C. with 5% CO2 overnight. The following day, compounds were serially diluted from a 10 mM top dose for an 11-point 3 fold dilution curve in DMSO. Compounds were intermediately diluted 1:100 into growth media prior to diluting 1:10 on cells for final concentration 10 μM to 0.1 nM in 0.1% DMSO. After 30 minutes pre-treatment with compounds, the cells were stimulated using 200 μg/mL of F(ab)2 complexed anti-CD3 (clone UCTH1) for 15 min at 37° C. with 5% CO2. Stimulation was stopped with ice cold PBS and cells were harvested by centrifugation before lysis in Cisbio lysis buffer (Cisbio, Bedford, Mass.). Lysates were transferred to white, low-volume plates containing anti-phospho-SLP-76-Cryptate plus anti-phospho-SLP-76-d2 HTRF antibodies and incubated overnight at room temperature protected from light according to the manufacturer's protocol (Cisbio, Bedford, Mass.). HTRF was measured on a Perkin Elmer Envision and IC50 values were calculated by concentration-response curve fitting utilizing four-parameter nonlinear regression analyses.

[3] = mobility shift assay, 75 μM ATP, Morrison equation, tight-binding competitive inhibition
[4] = 30 min pre-treatment, anti-CD3 stimulation 15 min, HTRF
[5] = Phospho-SLP-76 (Ser376) HTRF, anti-CD3 stimulation

Sequence of human full-length recombinant HPK1 (Q92918 whole entry): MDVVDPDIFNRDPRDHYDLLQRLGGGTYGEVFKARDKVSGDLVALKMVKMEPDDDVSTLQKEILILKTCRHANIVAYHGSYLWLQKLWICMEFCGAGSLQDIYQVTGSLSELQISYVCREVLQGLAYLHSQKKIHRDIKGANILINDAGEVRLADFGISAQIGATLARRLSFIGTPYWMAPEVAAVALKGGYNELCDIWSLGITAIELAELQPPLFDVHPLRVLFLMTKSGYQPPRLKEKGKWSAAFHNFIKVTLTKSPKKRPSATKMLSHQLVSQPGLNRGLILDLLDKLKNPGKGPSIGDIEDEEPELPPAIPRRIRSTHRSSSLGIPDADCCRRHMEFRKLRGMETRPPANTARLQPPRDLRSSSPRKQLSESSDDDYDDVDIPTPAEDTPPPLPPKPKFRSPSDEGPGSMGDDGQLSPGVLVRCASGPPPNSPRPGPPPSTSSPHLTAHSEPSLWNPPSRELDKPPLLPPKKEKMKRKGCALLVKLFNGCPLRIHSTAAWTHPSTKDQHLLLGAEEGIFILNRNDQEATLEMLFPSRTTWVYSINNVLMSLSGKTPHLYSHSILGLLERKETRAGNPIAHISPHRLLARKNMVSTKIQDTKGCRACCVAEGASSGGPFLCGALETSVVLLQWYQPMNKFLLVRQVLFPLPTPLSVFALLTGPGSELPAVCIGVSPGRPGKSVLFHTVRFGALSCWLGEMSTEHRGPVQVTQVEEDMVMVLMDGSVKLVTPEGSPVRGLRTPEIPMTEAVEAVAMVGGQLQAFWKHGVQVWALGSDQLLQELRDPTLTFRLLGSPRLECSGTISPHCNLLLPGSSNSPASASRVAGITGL

| Structure (SMILES) | Ki [1, 3] | Ki ([1]; HPK1 mobility shift assay) | further results |
| --- | --- | --- | --- |
| CC[C@@H](CC(F)(F)F)n1cnnc1-c1cccc(N2Cc3c(cc(N(C)C)nc3CNC)C2=O)n1 (single isomer, unassigned) [Example 18, 6-(dimethylamino)-4-[(methylamino)methyl]-2-(6-{4-[(3ξ)-1,1,1-trifluoropentan-3-yl]-4H-1,2,4-triazol-3-yl}pyridin-2-yl)-2,3-dihydro-1H-pyrrolo[3,4-c]pyridin-1-one] | < 0.05 nM | – | IC50 [2, 4]: 101 nM |
| CCC(CC(F)(F)F)n1cnnc1-c1cccc(N2Cc3c(cc(C4(C)CC4)nc3CNC)C2=O)n1 (single isomer, unassigned) [Example 180] | – | 25.1 nM | – |
| CCC(CC(F)(F)F)n1cnnc1-c1cccc(N2Cc3c(cc(C4(C)CC4)nc3CNC)C2=O)n1 (single isomer, unassigned) [Example 181] | – | 0.13 nM | – |
| CC[C@H](CO)n1cnnc1-c1cccc(N2Cc3c(cc(C4(C)CC4)nc3CNC)C2=O)n1 (single isomer, unassigned) [Example 183] | – | 0.35 nM | – |
| CC[C@@H](CO)n1cnnc1-c1cccc(N2Cc3c(cc(C4(C)CC4)nc3CNC)C2=O)n1 (single isomer, unassigned) [Example 184] | – | 1.15 nM | – |
| CNCc1nc(N2[C@H](C)C[C@H]2C)cc2c1CN(c1cccc(-c3nncn3C(C)C)n1)C2=O [Example 3, 6-[(2R,4R)-2,4-dimethylazetidin-1-yl]-4-[(methylamino)methyl]-2-{6-[4-(propan-2-yl)-4H-1,2,4-triazol-3-yl]pyridin-2-yl}-2,3-dihydro-1H-pyrrolo[3,4-c]pyridin-1-one] | 0.77 nM | – | – |
| CNCc1nc(N2CCCC2)cc2c1CN(c1cccc(-c3nncn3[C@@H](C)CC(F)(F)F)n1)C2=O [Example 15, 4-[(methylamino)methyl]-6-(pyrrolidin-1-yl)-2-(6-{4-[(2S)-4,4,4-trifluorobutan-2-yl]-4H-1,2,4-triazol-3-yl}pyridin-2-yl)-2,3-dihydro-1H-pyrrolo[3,4-c]pyridin-1-one] | – | – | IC50 [2, 4]: 134 nM |
| CNCc1nccc2c1CN(c1cccc(-c3nncn3C(C)C)n1)C2=O [Example 23, 4-[(methylamino)methyl]-2-{6-[4-(propan-2-yl)-4H-1,2,4-triazol-3-yl]pyridin-2-yl}-2,3-dihydro-1H-pyrrolo[3,4-c]pyridin-1-one] | 140 nM | – | – |
| CNCc1nc(NC)cc2c1CN(c1cccc(-c3nncn3C(C)C)n1)C2=O [Example 24] | – | – | IC50 [2, 4]: 488 nM |
| CNCc1nc(N2[C@H]3CC[C@@H]2CC3)cc2c1CN(c1cccc(-c3nncn3C(C)C)n1)C2=O [Example 25, 6-[(1s,4s)-7-azabicyclo[2.2.1]hept-7-yl]-4-[(methylamino)methyl]-2-{6-[4-(propan-2-yl)-4H-1,2,4-triazol-3-yl]pyridin-2-yl}-2,3-dihydro-1H-pyrrolo[3,4-c]pyridin-1-one] | 1 nM | – | – |
| CNCc1nc(N2[C@H](C)CC[C@@H]2C)cc2c1CN(c1cccc(-c3nncn3C(C)C)n1)C2=O [Example 27, 6-[(2R,5S)-2,5-dimethylpyrrolidin-1-yl]-4-[(methylamino)methyl]-2-{6-[4-(propan-2-yl)-4H-1,2,4-triazol-3-yl]pyridin-2-yl}-2,3-dihydro-1H-pyrrolo[3,4-c]pyridin-1-one] | 0.19 nM | – | – |
| CC(C)n1cnnc1-c1cccc(N2Cc3c(cc(C4CC4)nc3CN)C2=O)n1 [Example 31, 4-(aminomethyl)-6-cyclopropyl-2-{6-[4-(propan-2-yl)-4H-1,2,4-triazol-3-yl]pyridin-2-yl}-2,3-dihydro-1H-pyrrolo[3,4-c]pyridin-1-one] | 0.66 nM | – | – |
| CNCc1nc(C(F)(F)F)cc2c1CN(c1cccc(-c3nncn3C(C)C)n1)C2=O [Example 52, 4-[(methylamino)methyl]-2-{6-[4-(propan-2-yl)-4H-1,2,4-triazol-3-yl]pyridin-2-yl}-6-(trifluoromethyl)-2,3-dihydro-1H-pyrrolo[3,4-c]pyridin-1-one] | 89.9 nM | – | – |
| CCCn1cnnc1-c1cccc(N2Cc3c(cc(N4CCC[C@H]4C)nc3CNC)C2=O)n1 [Example 55, 4-[(methylamino)methyl]-6-[(2R)-2-methylpyrrolidin-1-yl]-2-[6-(4-propyl-4H-1,2,4-triazol-3-yl)pyridin-2-yl]-2,3-dihydro-1H-pyrrolo[3,4-c]pyridin-1-one] | < 0.06 nM | – | – |
| CCCn1c(C)nnc1-c1cccc(N2Cc3c(cc(N4CCC[C@H]4C)nc3CNC)C2=O)n1 [Example 62, 4-[(methylamino)methyl]-2-[6-(5-methyl-4-propyl-4H-1,2,4-triazol-3-yl)pyridin-2-yl]-6-[(2R)-2-methylpyrrolidin-1-yl]-2,3-dihydro-1H-pyrrolo[3,4-c]pyridin-1-one] | – | – | IC50 [2, 4]: 42 nM |
| CCCn1cnnc1-c1cccc(N2Cc3c(cc(N(C)C(C)C)nc3CNC)C2=O)n1 [Example 63, 4-[(methylamino)methyl]-6-[methyl(propan-2-yl)amino]-2-[6-(4-propyl-4H-1,2,4-triazol-3-yl)pyridin-2-yl]-2,3-dihydro-1H-pyrrolo[3,4-c]pyridin-1-one] | < 0.09 nM | – | – |

| Structure (SMILES) | Ki [1, 3] | Ki ([1]; HPK1 mobility shift assay) | further results |
| --- | --- | --- | --- |
| CCCn1c(C)nnc1-c1cccc(N2Cc3c(cc(N(C)C(C)C)nc3CNC)C2=O)n1 [Example 64, 4-[(methylamino)methyl]-6-[methyl(propan-2-yl)amino]-2-[6-(5-methyl-4-propyl-4H-1,2,4-triazol-3-yl)pyridin-2-yl]-2,3-dihydro-1H-pyrrolo[3,4-c]pyridin-1-one] | < 0.17 nM | – | – |
| CCc1nnc(-c2cccc(N3Cc4c(cc(N(C)C(C)C)nc4CNC)C3=O)n2)n1CC [Example 67, 2-[6-(4,5-diethyl-4H-1,2,4-triazol-3-yl)pyridin-2-yl]-4-[(methylamino)methyl]-6-[methyl(propan-2-yl)amino]-2,3-dihydro-1H-pyrrolo[3,4-c]pyridin-1-one] | 1.29 nM | – | – |
| CCNc1cc2c(c(CNC)n1)CN(c1cccc(-c3nncn3C(C)C)n1)C2=O [Example 77, 6-(ethylamino)-4-[(methylamino)methyl]-2-{6-[4-(propan-2-yl)-4H-1,2,4-triazol-3-yl]pyridin-2-yl}-2,3-dihydro-1H-pyrrolo[3,4-c]pyridin-1-one] | – | 0.68 nM | – |
| CCCn1cnnc1-c1cccc(N2Cc3c(cc(N(CC)C(C)C)nc3CNC)C2=O)n1 [Example 99, 6-[ethyl(propan-2-yl)amino]-4-[(methylamino)methyl]-2-[6-(4-propyl-4H-1,2,4-triazol-3-yl)pyridin-2-yl]-2,3-dihydro-1H-pyrrolo[3,4-c]pyridin-1-one] | – | 0.83 nM | – |
| CCn1c(C)nnc1-c1cccc(N2Cc3c(cc(N4CCC[C@H]4C)nc3CNC)C2=O)n1 [Example 121, 2-[6-(4-ethyl-5-methyl-4H-1,2,4-triazol-3-yl)pyridin-2-yl]-4-[(methylamino)methyl]-6-[(2R)-2-methylpyrrolidin-1-yl]-2,3-dihydro-1H-pyrrolo[3,4-c]pyridin-1-one] | – | – | IC50 [2, 5]: 62 nM |
| CCCn1c(C)nnc1-c1cccc(N2Cc3c(cc(N4CCC[C@H]4C)nc3CN)C2=O)n1 [Example 133, 4-(aminomethyl)-2-[6-(5-methyl-4-propyl-4H-1,2,4-triazol-3-yl)pyridin-2-yl]-6-[(2R)-2-methylpyrrolidin-1-yl]-2,3-dihydro-1H-pyrrolo[3,4-c]pyridin-1-one] | – | – | IC50 [2, 5]: 232 nM |
| CCCn1c(C)nnc1-c1cccc(N2Cc3c(cc(N4CCC[C@@H]4C)nc3CNC)C2=O)n1 [Example 134, 4-[(methylamino)methyl]-2-[6-(5-methyl-4-propyl-4H-1,2,4-triazol-3-yl)pyridin-2-yl]-6-[(2S)-2-methylpyrrolidin-1-yl]-2,3-dihydro-1H-pyrrolo[3,4-c]pyridin-1-one] | – | – | IC50 [2, 5]: 53 nM |
| CCCn1c(C)nnc1-c1cccc(N2Cc3c(cc(N4CCC[C@@H]4C)nc3CN)C2=O)n1 [Example 159] | – | – | IC50 [2, 5]: 112 nM |
| Cc1nnc(-c2cccc(N3Cc4c(cc(N5CCCC5(C)C)nc4CN)C3=O)n2)n1C(C)C [Example 164] | – | – | IC50 [2, 5]: 65 nM |
| CNCc1nc(N(C)C)cc2c1CN(c1cccc(-c3nncn3[C@@H](C)C(C)C)n1)C2=O [Example 178] | – | 0.17 nM | – |
| CNCc1nc(C2(C)CC2)cc2c1CN(c1cccc(-c3nncn3C3CCCC3)n1)C2=O [Example 179] | – | 0.47 nM | – |
| CNCc1nc(N(C)C)cc2c1CN(c1cccc(-c3nncn3[C@H](C)C(C)C)n1)C2=O [Example 182] | – | 0.37 nM | – |
| CCCn1c(CC)nnc1-c1cccc(N2Cc3c(cc(N4CCC[C@H]4C)nc3CN)C2=O)n1 [Example 186] | – | 1.91 nM | – |
| CNCc1nc(C2(C)CC2)cc2c1CN(c1cccc(-c3nnc(C)n3C3CCC3)n1)C2=O [Example 187] | – | 26 nM | – |
| Cc1nnc(-c2cccc(N3Cc4c(cc(C5(C)CC5)nc4CN)C3=O)n2)n1C1CCC1 [Example 188] | – | 41 nM | – |
